# From patent US10040781B2, “Tank-binding kinase inhibitor compounds” (Gilead Sciences, Inc., priority 2014, dated 2018)
# Columns and labels:
# [1] = target: IKKε (Homo sapiens (Human), UniProt Q14164); assay: IKKε TR-FRET enzymatic assay; assay type: biochemical; conditions: read-out: IKKe IC50
# [2] = target: hJAK2 (Homo sapiens (Human), UniProt O60674); assay: hJAK2 LANCE TR-FRET enzymatic assay; assay type: biochemical; conditions: read-out: JAK2 IC50
# [3] = target: TBK1 (Homo sapiens (Human), UniProt Q9UHD2); assay: TBK1 TR-FRET enzymatic assay;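 note: phosphorylation of a biotinylated Ser/Thr peptide by purified full-length recombinant TBK1, read by TR-FRET after 240 min at 25 °C, IC50 is the geometric mean of at least four runs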
# TBK1, sequence (Q9UHD2 whole entry): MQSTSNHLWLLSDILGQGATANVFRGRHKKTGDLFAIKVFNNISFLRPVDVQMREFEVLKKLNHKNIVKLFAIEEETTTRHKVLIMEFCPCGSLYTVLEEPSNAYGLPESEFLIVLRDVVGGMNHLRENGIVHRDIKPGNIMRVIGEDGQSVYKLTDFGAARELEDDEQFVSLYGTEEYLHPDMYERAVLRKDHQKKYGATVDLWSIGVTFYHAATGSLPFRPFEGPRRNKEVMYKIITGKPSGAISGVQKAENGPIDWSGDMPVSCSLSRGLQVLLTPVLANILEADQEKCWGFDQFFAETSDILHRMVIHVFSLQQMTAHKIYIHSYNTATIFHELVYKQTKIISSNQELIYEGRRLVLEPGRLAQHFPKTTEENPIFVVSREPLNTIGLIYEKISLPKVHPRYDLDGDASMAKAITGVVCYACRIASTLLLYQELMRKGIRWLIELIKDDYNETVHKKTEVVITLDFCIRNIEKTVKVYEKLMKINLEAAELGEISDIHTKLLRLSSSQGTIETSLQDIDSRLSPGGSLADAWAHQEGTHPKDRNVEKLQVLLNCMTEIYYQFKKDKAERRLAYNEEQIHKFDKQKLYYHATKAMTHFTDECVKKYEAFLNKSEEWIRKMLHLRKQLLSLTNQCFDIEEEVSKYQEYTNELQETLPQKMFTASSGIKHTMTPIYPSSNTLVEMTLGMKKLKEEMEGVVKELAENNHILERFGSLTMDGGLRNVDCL
# hJAK2, sequence (O60674 whole entry): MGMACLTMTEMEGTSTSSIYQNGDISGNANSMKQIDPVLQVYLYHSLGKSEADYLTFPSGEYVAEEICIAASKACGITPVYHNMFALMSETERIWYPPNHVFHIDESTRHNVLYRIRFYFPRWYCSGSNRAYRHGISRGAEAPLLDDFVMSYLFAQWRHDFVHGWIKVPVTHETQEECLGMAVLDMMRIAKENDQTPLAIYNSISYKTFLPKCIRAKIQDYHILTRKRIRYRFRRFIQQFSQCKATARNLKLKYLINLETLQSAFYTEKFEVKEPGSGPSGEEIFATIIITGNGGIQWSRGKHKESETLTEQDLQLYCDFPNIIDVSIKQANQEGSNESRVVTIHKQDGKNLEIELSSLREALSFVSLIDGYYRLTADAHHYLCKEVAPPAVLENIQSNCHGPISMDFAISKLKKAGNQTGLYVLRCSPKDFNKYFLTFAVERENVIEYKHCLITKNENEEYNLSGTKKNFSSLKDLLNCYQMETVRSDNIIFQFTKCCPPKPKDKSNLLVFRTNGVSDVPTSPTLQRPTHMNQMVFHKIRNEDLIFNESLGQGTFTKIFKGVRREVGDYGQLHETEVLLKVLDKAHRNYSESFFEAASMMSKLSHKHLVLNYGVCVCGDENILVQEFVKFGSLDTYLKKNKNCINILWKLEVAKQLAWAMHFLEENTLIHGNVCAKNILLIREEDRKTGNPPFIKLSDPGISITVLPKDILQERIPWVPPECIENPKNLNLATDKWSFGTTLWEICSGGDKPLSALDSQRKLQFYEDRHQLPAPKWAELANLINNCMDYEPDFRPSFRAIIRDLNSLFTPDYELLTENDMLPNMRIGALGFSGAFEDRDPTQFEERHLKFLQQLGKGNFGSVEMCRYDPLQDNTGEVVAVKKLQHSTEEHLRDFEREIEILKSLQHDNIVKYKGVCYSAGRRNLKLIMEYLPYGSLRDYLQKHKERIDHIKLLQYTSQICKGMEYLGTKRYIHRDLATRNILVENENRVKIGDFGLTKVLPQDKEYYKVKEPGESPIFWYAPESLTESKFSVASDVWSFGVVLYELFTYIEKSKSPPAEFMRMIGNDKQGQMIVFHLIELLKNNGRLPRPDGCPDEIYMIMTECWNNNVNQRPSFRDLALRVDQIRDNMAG
# IKKε, sequence (Q14164 whole entry): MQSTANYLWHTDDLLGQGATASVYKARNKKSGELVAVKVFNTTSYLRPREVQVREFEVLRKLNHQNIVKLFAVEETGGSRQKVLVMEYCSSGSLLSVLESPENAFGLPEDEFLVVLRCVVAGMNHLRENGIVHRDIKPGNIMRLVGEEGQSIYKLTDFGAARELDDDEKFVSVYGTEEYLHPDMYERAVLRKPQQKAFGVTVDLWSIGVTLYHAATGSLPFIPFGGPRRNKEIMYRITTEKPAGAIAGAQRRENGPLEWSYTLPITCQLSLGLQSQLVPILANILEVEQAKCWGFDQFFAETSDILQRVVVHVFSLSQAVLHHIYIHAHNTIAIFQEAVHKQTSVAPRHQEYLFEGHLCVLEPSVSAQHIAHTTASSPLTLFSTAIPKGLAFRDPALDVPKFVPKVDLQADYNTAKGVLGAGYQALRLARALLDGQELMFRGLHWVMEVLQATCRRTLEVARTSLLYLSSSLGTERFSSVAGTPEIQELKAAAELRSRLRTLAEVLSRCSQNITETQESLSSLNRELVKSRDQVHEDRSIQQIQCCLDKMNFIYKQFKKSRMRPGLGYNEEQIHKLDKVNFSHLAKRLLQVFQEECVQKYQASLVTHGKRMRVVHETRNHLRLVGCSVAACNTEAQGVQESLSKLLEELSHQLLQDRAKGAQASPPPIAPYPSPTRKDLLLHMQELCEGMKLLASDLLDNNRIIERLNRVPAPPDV
SMILES,IC50 [1] [nM],IC50 [2] [nM],IC50 [3] [nM]
"C[C@H]1CN(C2COC2)CCN1c1ccc(Nc2ncnc(-c3ccc(O[C@H]4CCN(C(=O)CCO)C[C@H]4F)c(C#N)c3)n2)cc1 [Example 251, 2-(((3R,4S)-3-fluoro-1-(3-hydroxypropanoyl)piperidin-4-yl)oxy)-5-(4-((4-((S)-2-methyl-4-(oxetan-3-yl)piperazin-1-yl)phenyl)amino)-1,3,5-triazin-2-yl)benzonitrile]",14,369,5
"C[C@H](O)C(=O)N1CC[C@H](Oc2ccc(-c3ncnc(Nc4ccc(N5CCN(C6COC6)C[C@@H]5C)cc4)n3)cc2C#N)C(F)(F)C1 [Example 252, 2-(((S)-3,3-difluoro-1-((S)-2-hydroxypropanoyl)piperidin-4-yl)oxy)-5-(4-((4-((S)-2-methyl-4-(oxetan-3-yl)piperazin-1-yl)phenyl)amino)-1,3,5-triazin-2-yl)benzonitrile]",1,213,3
"C[C@H]1CN(C2COC2)CCN1c1ccc(Nc2ncnc(-c3ccc(O[C@H]4CCN(C(=O)CC#N)CC4(F)F)c(C#N)c3)n2)cc1 [Example 253, 2-(((S)-1-(2-cyanoacetyl)-3,3-difluoropiperidin-4-yl)oxy)-5-(4-((4-((S)-2-methyl-4-(oxetan-3-yl)piperazin-1-yl)phenyl)amino)-1,3,5-triazin-2-yl)benzonitrile]",2,61,3
"C[C@H]1CN(C2COC2)CCN1c1ccc(Nc2ncnc(-c3ccc(O[C@H]4CCN(C(=O)CCO)CC4(F)F)c(C#N)c3)n2)cc1 [Example 254, 2-(((S)-3,3-difluoro-1-(3-hydroxypropanoyl)piperidin-4-yl)oxy)-5-(4-((4-((S)-2-methyl-4-(oxetan-3-yl)piperazin-1-yl)phenyl)amino)-1,3,5-triazin-2-yl)benzonitrile]",5,151,3
"C[C@H]1CN(C2COC2)CCN1c1ccc(Nc2ncnc(-c3ccc(O[C@H]4CCN(C(=O)c5cnn[nH]5)C[C@H]4F)c(C#N)c3)n2)cc1 [Example 255, 2-(((3R,4S)-3-fluoro-1-(1H-1,2,3-triazole-5-carbonyl)piperidin-4-yl)oxy)-5-(4-((4-((S)-2-methyl-4-(oxetan-3-yl)piperazin-1-yl)phenyl)amino)-1,3,5-triazin-2-yl)benzonitrile]",2,227,4
"C[C@H]1CN(C2COC2)CCN1c1ccc(Nc2ncnc(-c3ccc(O[C@H]4CCN(C(=O)c5cnc[nH]5)C[C@H]4F)c(C#N)c3)n2)cc1 [Example 256, 2-(((3R,4S)-3-fluoro-1-(1H-imidazole-5-carbonyl)piperidin-4-yl)oxy)-5-(4-((4-((S)-2-methyl-4-(oxetan-3-yl)piperazin-1-yl)phenyl)amino)-1,3,5-triazin-2-yl)benzonitrile]",1,144,3
"C[C@H]1CN(C2COC2)CCN1c1ccc(Nc2ncnc(-c3ccc(O[C@H]4CCN(C(=O)c5ccn[nH]5)C[C@H]4F)c(C#N)c3)n2)cc1 [Example 257, 2-(((3R,4S)-3-fluoro-1-(1H-pyrazole-5-carbonyl)piperidin-4-yl)oxy)-5-(4-((4-((S)-2-methyl-4-(oxetan-3-yl)piperazin-1-yl)phenyl)amino)-1,3,5-triazin-2-yl)benzonitrile]",1,270,2
"C[C@H]1CN(C2COC2)CCN1c1ccc(Nc2ncnc(-c3ccc(O[C@H]4CCN(C(=O)c5cnc[nH]5)CC4(F)F)c(C#N)c3)n2)cc1 [Example 259, 2-(((S)-3,3-difluoro-1-(1H-imidazole-5-carbonyl)piperidin-4-yl)oxy)-5-(4-((4-((S)-2-methyl-4-(oxetan-3-yl)piperazin-1-yl)phenyl)amino)-1,3,5-triazin-2-yl)benzonitrile]",1,66,3
"C[C@H](O)C(=O)N1CC[C@H](Oc2ccc(-c3ncnc(Nc4ccc(N5CCN(C6COC6)[C@@H](C)C5)cc4)n3)cc2C#N)C(F)(F)C1 [Example 262, 2-(((S)-3,3-difluoro-1-((S)-2-hydroxypropanoyl)piperidin-4-yl)oxy)-5-(4-((4-((S)-3-methyl-4-(oxetan-3-yl)piperazin-1-yl)phenyl)amino)-1,3,5-triazin-2-yl)benzonitrile]",1,156,2
"C[C@H]1CN(c2ccc(Nc3ncnc(-c4ccc(O[C@H]5CCN(C(=O)c6cnn[nH]6)C[C@H]5F)c(C#N)c4)n3)cc2)CCN1C1COC1 [Example 263, 2-(((3R,4S)-3-fluoro-1-(1H-1,2,3-triazole-5-carbonyl)piperidin-4-yl)oxy)-5-(4-((4-((S)-3-methyl-4-(oxetan-3-yl)piperazin-1-yl)phenyl)amino)-1,3,5-triazin-2-yl)benzonitrile]",3,158,3
"C[C@H](O)C(=O)N1CC[C@H](Oc2ccc(-c3ncnc(Nc4ccc(N5CCN(C6COC6)[C@@H](C)C5)cc4)n3)cc2C#N)[C@H](F)C1 [Example 264, 2-(((3R,4S)-3-fluoro-1-((S)-2-hydroxypropanoyl)piperidin-4-yl)oxy)-5-(4-((4-((S)-3-methyl-4-(oxetan-3-yl)piperazin-1-yl)phenyl)amino)-1,3,5-triazin-2-yl)benzonitrile]",1,296,2
"C[C@H](O)C(=O)N1CC[C@H](Oc2ccc(-c3ncnc(Nc4ccc(N5C[C@@H](C)N(C6COC6)C[C@@H]5C)cc4)n3)cc2C#N)[C@H](F)C1 [Example 265, 5-(4-((4-((2S,5R)-2,5-dimethyl-4-(oxetan-3-yl)piperazin-1-yl)phenyl)amino)-1,3,5-triazin-2-yl)-2-(((3R,4S)-3-fluoro-1-((S)-2-hydroxypropanoyl)piperidin-4-yl)oxy)benzonitrile]",4,426,5
"Cc1ncc(C(=O)N2CC[C@H](Oc3ccc(-c4ncnc(Nc5ccc(N6CCN(C7COC7)CC6)cc5)n4)cc3C#N)[C@H](F)C2)n1C [Example 266, 2-(((3R,4S)-1-(1,2-dimethyl-1H-imidazole-5-carbonyl)-3-fluoropiperidin-4-yl)oxy)-5-(4-((4-(4-(oxetan-3-yl)piperazin-1-yl)phenyl)amino)-1,3,5-triazin-2-yl)benzonitrile]",83,387,82
"Cn1cncc1C(=O)N1CC[C@H](Oc2ccc(-c3ncnc(Nc4ccc(N5CCN(C6COC6)CC5)cc4)n3)cc2C#N)[C@H](F)C1 [Example 267, 2-(((3R,4S)-3-fluoro-1-(1-methyl-1H-imidazole-5-carbonyl)piperidin-4-yl)oxy)-5-(4-((4-(4-(oxetan-3-yl)piperazin-1-yl)phenyl)amino)-1,3,5-triazin-2-yl)benzonitrile]",264,404,120
"N#Cc1cc(-c2ncnc(Nc3ccc(N4CCN(C5COC5)CC4)c(F)c3)n2)ccc1OC1CCS(=O)(=O)CC1 [Example 268, 2-((1,1-dioxidotetrahydro-2H-thiopyran-4-yl)oxy)-5-(4-((3-fluoro-4-(4-(oxetan-3-yl)piperazin-1-yl)phenyl)amino)-1,3,5-triazin-2-yl)benzonitrile]",69,527,12
"COC1CN(c2ccc(-c3ncnc(Nc4ccc(N5CCN(C6COC6)CC5)cc4)n3)cc2C#N)C1 [Example 269, 2-(3-methoxyazetidin-1-yl)-5-(4-((4-(4-(oxetan-3-yl)piperazin-1-yl)phenyl)amino)-1,3,5-triazin-2-yl)benzonitrile]",25,219,13
"N#Cc1cc(-c2ncnc(Nc3ccc(N4CCN(C5COC5)CC4)cc3)n2)cc(F)c1OC1CCS(=O)(=O)CC1 [Example 271, 2-((1,1-dioxidotetrahydro-2H-thiopyran-4-yl)oxy)-3-fluoro-5-(4-((4-(4-(oxetan-3-yl)piperazin-1-yl)phenyl)amino)-1,3,5-triazin-2-yl)benzonitrile]",110,≥ 1000,18
"CS(=O)(=O)C1CN(c2ccc(-c3ncnc(Nc4ccc(N5CCN(C6COC6)CC5)cc4)n3)cc2C#N)C1 [Example 272, 2-(3-(methylsulfonyl)azetidin-1-yl)-5-(4-((4-(4-(oxetan-3-yl)piperazin-1-yl)phenyl)amino)-1,3,5-triazin-2-yl)benzonitrile]",53,68,28
"CS(=O)(=O)N1CC(Oc2ccc(-c3ncnc(Nc4ccc(N5CCN(C6COC6)CC5)cc4)n3)cc2C#N)C1 [Example 273, 2-((1-(methylsulfonyl)azetidin-3-yl)oxy)-5-(4-((4-(4-(oxetan-3-yl)piperazin-1-yl)phenyl)amino)-1,3,5-triazin-2-yl)benzonitrile]",285,133,139
"N#Cc1cc(-c2ncnc(Nc3ccc(N4CCN(C5COC5)CC4)cc3)n2)ccc1OC1CN(C(=O)CO)C1 [Example 274, 2-((1-(2-hydroxyacetyl)azetidin-3-yl)oxy)-5-(4-((4-(4-(oxetan-3-yl)piperazin-1-yl)phenyl)amino)-1,3,5-triazin-2-yl)benzonitrile]",≥ 1000,≥ 1000,47
"N#Cc1cc(-c2ncnc(Nc3ccc4oc(=O)[nH]c4c3)n2)ccc1OC1CCOCC1 [Example 277, 5-(4-((2-oxo-2,3-dihydrobenzo[d]oxazol-5-yl)amino)-1,3,5-triazin-2-yl)-2-((tetrahydro-2H-pyran-4-yl)oxy)benzonitrile]",47,≥ 1000,18
"CC1(C)C(=O)Nc2ccc(Nc3ncnc(-c4ccc(OC5CCOCC5)c(C#N)c4)n3)cc21 [Example 278, 5-(4-((3,3-dimethyl-2-oxoindolin-5-yl)amino)-1,3,5-triazin-2-yl)-2-((tetrahydro-2H-pyran-4-yl)oxy)benzonitrile]",9,541,4
